Nine compounds from patent US8197794B2, “Core 2 GlcNAc-T inhibitors” (MS Therapeutics Limited, priority 2003, dated 2012) can be followed below.

Molecules are shown by their SMILES. Read-outs that look alike come from different tables or passages of the source.

The target in test [1] is T1, core 2 GlcNAc-T (Mus musculus, UniProt Q09324).
T1 construct: heart lysates from either from TNF-alpha over expressing transgenic mice; tissue Taconic-M+B (mice) B6.5JL-Tg (TNF); host or cells: heart lysate of TNF-alpha over-expressing transgenic mice
T1 sequence (Q09324 1-428): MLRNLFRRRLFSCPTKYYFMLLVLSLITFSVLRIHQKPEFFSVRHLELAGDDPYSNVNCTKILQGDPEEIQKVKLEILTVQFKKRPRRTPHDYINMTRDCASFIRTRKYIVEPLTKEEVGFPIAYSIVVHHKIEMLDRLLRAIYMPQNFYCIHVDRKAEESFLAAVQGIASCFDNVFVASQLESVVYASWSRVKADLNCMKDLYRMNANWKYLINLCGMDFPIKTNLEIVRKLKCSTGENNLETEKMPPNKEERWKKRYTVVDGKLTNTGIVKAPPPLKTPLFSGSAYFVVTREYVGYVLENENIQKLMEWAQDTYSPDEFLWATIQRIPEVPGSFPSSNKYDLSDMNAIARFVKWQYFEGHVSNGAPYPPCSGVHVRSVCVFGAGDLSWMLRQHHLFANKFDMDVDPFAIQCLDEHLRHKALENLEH
Description: Cell free assay of core 2 GlcNAc-T on heart lysates of TNF-α mice. It counts as biochemical. The procedure:
(§1) For Glucose induction of Core 2 GlcNAc-T leukocytes (U937 cells) are exposed to normal glucose (5.8 mM) or high glucose (15 mM) for 24 hours at 37° C. After incubation, the cells maybe lysed and frozen at −20° C. until used for the measurement of core 2 GlcNAc-T. or used immediately. For TNF-α induction of core 2 GlcNAc-T, Human leukocytes(U937 cells) are exposed to human recombinant TNF-alpha (8 pg/ml) in the presence and absence of test compounds After 24 h incubation, the activity of core 2 GlcNAc-T was measured, and expressed as pmoles/h/mg protein. For cell free assay of core 2 GlcNAc-T heart lysates from either from TNF-alpha over expressing transgenic mice (female, B6.5JL-Tg (TNF) supplied by Taconic-M+B, Bomholtveg 10, 8680 Ry, Denmark) or from BB rats (Festing 1979) are exposed to various concentrations of test compound for 1 h at 37° C. Activity of core 2
(§2) GlcNAc-T is measured, and expressed as pmoles/h/mg protein.
(§3) To measure core 2 GlcNAc-T activity, leukocytes were washed in PES, frozen and lysed in 0.9% Triton X-100 at 0° C. The activity of core 2 GlcNAc-T was measured as described previously (Chibber, Diabetes 49, 1724-1730 (2000)). Briefly, the reaction was performed in a reaction mixture containing 50 mM 2(N-morpholino)ethanesulfonic acid (MES, Sigma, Dorset, UK), pH 7.0, 1 mM UDP-6 [′H]-N-acetylglucosamine (16,000 dpm/nmol, NEN Life Science Products, Hounslow, UK), 0.1 M GlcNAc (Sigma, Dorset, Okla.), 1 mM Galβ1-3GalNAcα-p-nitrophenol (Sigma, Dorset, UK) as substrate, and […] of cell lysate (100-200 μg protein) for a final volume of […]. After incubating the mixture for 1 hour at 37° C., the reaction was terminated with 1 ml of ice-cold distilled water and processed on a C18 Sep-Pak column (Waters-Millipore, Watford, UK). After washing the column with 20 ml of distilled water, the product was eluted with 5 ml of methanol. The radioactivity of the samples was counted in a liquid scintillation β-counter (LKB-Wallac, London, UK). Endogenous activity of core 2 GlcNAc-T was measured in the absence of the added acceptor. The specific activity was expressed as pmoles/h/mg of cell protein. In each case, the protein concentration was determined with BioRad protein assay (BioRad, Hertfordshire, UK).

Test [2] has as its target T2, Core 2 GlcNAc-T (Homo sapiens, UniProt Q02742).
T2 sequence (Q02742 1-428): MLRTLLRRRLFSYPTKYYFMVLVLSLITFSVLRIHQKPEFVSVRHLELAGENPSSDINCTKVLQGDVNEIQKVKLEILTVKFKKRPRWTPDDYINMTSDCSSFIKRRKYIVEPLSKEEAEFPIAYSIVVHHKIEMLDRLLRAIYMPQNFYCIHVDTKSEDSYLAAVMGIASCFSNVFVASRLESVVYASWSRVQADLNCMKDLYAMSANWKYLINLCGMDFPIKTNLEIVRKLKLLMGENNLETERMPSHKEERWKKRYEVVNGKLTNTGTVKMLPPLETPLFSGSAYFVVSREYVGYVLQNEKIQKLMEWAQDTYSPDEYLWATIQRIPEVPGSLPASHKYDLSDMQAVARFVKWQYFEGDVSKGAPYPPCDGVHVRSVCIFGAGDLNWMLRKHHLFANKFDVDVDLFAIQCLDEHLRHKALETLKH
Nature of the test: Cell based assay of core 2 GlcNAc-T activity in human leukocytes (U937 cells). The procedure: (§4) FIG. 17a and FIG. 17b are graphs illustrating the effect of purified trigoneoside IVa, glycoside F, and shatavarin IV on Core 2 GlcNAc-T activity in cell free (FIG. 17a) and cell based (FIG. 17b) assays. In cell free assays heart lysate from BB rats were incubated in the presence, and absence of 20 ng/ml of each compound. After 1 h incubation at 37° C., the activity of core 2 GlcNAc-T was measured, and expressed as pmoles/h/mg protein. The results are the mean of 3-5 separate experiments. In cell based assays human leukocytes (U937 cells) were exposed to 8 pg/ml human recombinant TNF-alpha in the presence and absence of 20 ng/ml of the test compound. After 24 h incubation, the activity of core 2 GlcNAc-T was measured, and expressed as pmoles/h/mg protein.
as §1, §3

Test [3] addresses core 2 GlcNAc-T (Rattus norvegicus, UniProt Q64165). Nature of the test: Cell free assay of core 2 GlcNAc-T on heart lysates of BB rats. It counts as biochemical. The procedure: as §4
For Glucose induction of Core 2 GlcNAc-T leukocytes (U937 cells) are exposed to normal glucose (5.8 mM) or high glucose (15 mM) for 24 hours at 37° C. After incubation, the cells maybe lysed and frozen at −20° C. until used for the measurement of core 2 GlcNAc-T. or used immediately. For TNF-α induction of core 2 GlcNAc-T, Human leukocytes(U937 cells) are exposed to human recombinant TNF-alpha (8 pg/ml) in the presence and absence of test compounds After 24 h incubation, the activity of core 2 GlcNAc-T was measured, and expressed as pmoles/h/mg protein. […]
as §2
To measure core 2 GlcNAc-T activity, leukocytes were washed in PES, frozen and lysed in 0.9% Triton X-100 at 0° C. The activity of core 2 GlcNAc-T was measured as described previously (Chibber, Diabetes 49, 1724-1730 (2000)). […] The radioactivity of the samples was counted in a liquid scintillation β-counter (LKB-Wallac, London, UK). Endogenous activity of core 2 GlcNAc-T was measured in the absence of the added acceptor. The specific activity was expressed as pmoles/h/mg of cell protein. In each case, the protein concentration was determined with BioRad protein assay (BioRad, Hertfordshire, UK).

Test [4] concerns the target T2, Core 2 GlcNAc-T. Description: Core 2 GlcNAc-T inhibition, assay system not given. It counts as biochemical. Here is the method:
as §3

Where [5] appears, read: heart lysates of TNF-α mice, read-out: Approximate Ic50 values, Cell free assay.
[6] abbreviates: read-out: Approximate Ic50 values, Cell based assay.

Sequence of core 2 GlcNAc-T (Rattus norvegicus, UniProt Q64165) (Q64165 entry or part of it): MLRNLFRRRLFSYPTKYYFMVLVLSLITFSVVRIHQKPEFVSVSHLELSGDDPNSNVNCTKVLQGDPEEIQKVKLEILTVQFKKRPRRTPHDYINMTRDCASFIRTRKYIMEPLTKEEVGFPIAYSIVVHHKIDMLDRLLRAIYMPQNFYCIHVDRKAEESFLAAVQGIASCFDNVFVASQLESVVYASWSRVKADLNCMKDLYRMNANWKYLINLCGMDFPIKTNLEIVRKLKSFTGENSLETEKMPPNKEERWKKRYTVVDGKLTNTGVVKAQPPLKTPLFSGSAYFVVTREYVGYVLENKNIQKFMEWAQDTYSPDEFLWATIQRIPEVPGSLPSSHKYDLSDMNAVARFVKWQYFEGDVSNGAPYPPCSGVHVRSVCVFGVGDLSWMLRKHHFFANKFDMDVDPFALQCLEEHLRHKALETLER

On to `C[C@@H]1CC[C@@]2(OC1)O[C@H]1C[C@H]3[C@@H]4CC=C5C[C@@H](O[C@@H]6O[C@H](CO)[C@@H](O[C@@H]7O[C@@H](C)[C@H](O)[C@@H](O)[C@H]7O)[C@H](O)[C@H]6O[C@@H]6O[C@@H](C)[C@H](O)[C@@H](O)[C@H]6O)CC[C@]5(C)[C@H]4CC[C@]3(C)[C@H]1[C@@H]2C` [Dioscin, (3(3,25R)-spirost-5-en-3-yl O-6-deoxy-α-L-mannopyranosyl-(1→2)-046-deoxy-α-L-mannopyranosyl-(1→4)]-β-D-glucopyranoside], for which the values for the 50% inhibitory concentration (IC50) on core 2 GlcNAc-T [1] and at Core 2 GlcNAc-T [2] were 40 nM and 75 nM, respectively.

Consider `CC(CCC1(O)OC2CC3C4CC=C5CC(OC6OC(CO)C(OC7OC(CO)C(O)C(O)C7O)C(O)C6OC6OC(C)C(O)C(O)C6O)CCC5(C)C4CCC3(C)C2C1C)COC1OC(CO)C(O)C(O)C1O` [Glycoside F, (3β,25R)-26-(β-D-glucopyranosyloxy)-22-hydroxyfurost-5-en-3-yl O-6-deoxy-α-L-mannopyranosyl-(1→2)-O-[β-D-glucopyranosyl-(1→4)]-β-D-glucopyranoside], for which at 0.022 µM the inhibition on core 2 GlcNAc-T [3] (at 22 nM in BB rat heart lysate) was 100%.

For `C[C@@H]1CC[C@@]2(OC1)O[C@H]1C[C@H]3[C@@H]4CC=C5C[C@@H](O[C@@H]6O[C@H](CO)[C@@H](O)[C@H](O[C@@H]7O[C@H](CO)[C@@H](O)[C@H](O)[C@H]7O)[C@H]6O[C@@H]6O[C@@H](C)[C@H](O)[C@@H](O)[C@H]6O)CC[C@]5(C)[C@H]4CC[C@]3(C)[C@H]1[C@@H]2C` [Gracillin, (3β,25R)-spirost-5-en-3-yl O-6-deoxy-α-L-mannopyranosyl-(1→2)-O-[β-D-glucopyranosyl-(1→3)]-β-D-glucopyranoside], the results for the concentration for half-maximal inhibition (IC50) at core 2 GlcNAc-T [1] (setting [5]) and on Core 2 GlcNAc-T [2] (setting [6]) were 4.5 nM and 2.5 nM, respectively.

Take `C[C@H](CC[C@@]1(O)O[C@H]2C[C@H]3[C@@H]4CC=C5C[C@@H](O[C@@H]6O[C@H](CO)[C@@H](O[C@@H]7O[C@@H](C)[C@H](O)[C@@H](O)[C@H]7O)[C@H](O)[C@H]6O[C@@H]6O[C@@H](C)[C@H](O)[C@@H](O)[C@H]6O)CC[C@]5(C)[C@H]4CC[C@]3(C)[C@H]2[C@@H]1C)CO[C@@H]1O[C@H](CO)[C@@H](O)[C@H](O)[C@H]1O` [Protodioscin]: the IC50 on core 2 GlcNAc-T [3] (heart lysates of BB rats, read-out: Approximate Ic50 values, Cell free assay) was 20 nM; at core 2 GlcNAc-T [3] (system not restated, values as in Table 9 cell free assay, read-out: IC50), around 20 nM. For the same compound, the “inhibition of Core 2 GlcNAc-T compared to controls” value at Core 2 GlcNAc-T [2] (20 ng/ml, TNF-α treated Human leukocytes (U937 cells)) is listed as “approximately 98.5%”. For the same compound, the activity entry on Core 2 GlcNAc-T [4] (sample prepared from Tribulus terrestris, 97% pure, concentrations of 50 μM) was “no activity”.

Take `C[C@H](CC[C@@]1(O)O[C@H]2C[C@H]3[C@@H]4CC=C5C[C@@H](O[C@@H]6O[C@H](CO)[C@@H](O)[C@H](O[C@@H]7O[C@H](CO)[C@@H](O)[C@H](O)[C@H]7O)[C@H]6O[C@@H]6O[C@@H](C)[C@H](O)[C@@H](O)[C@H]6O)CC[C@]5(C)[C@H]4CC[C@]3(C)[C@H]2[C@@H]1C)CO[C@@H]1O[C@H](CO)[C@@H](O)[C@H](O)[C@H]1O` [Protogracillin]: the IC50 at core 2 GlcNAc-T [1] (setting [5]) came to 3 nM; on Core 2 GlcNAc-T [2] (setting [6]), 0.25 nM.

Regarding `CC1=C(CC[C@@H](C)CO[C@@H]2O[C@H](CO)[C@@H](O)[C@H](O)[C@H]2O)O[C@H]2C[C@H]3[C@@H]4CC=C5C[C@@H](O[C@@H]6O[C@H](CO)[C@@H](O[C@@H]7O[C@@H](C)[C@H](O)[C@@H](O)[C@H]7O)[C@H](O)[C@H]6O[C@@H]6O[C@@H](C)[C@H](O)[C@@H](O)[C@H]6O)CC[C@]5(C)[C@H]4CC[C@]3(C)[C@@H]12` [Pseudoprotodioscin, (3β,22α,25R)-26-(β-D-glucopyranosyloxy)-furosta-5,20(22)-dien-3-yl O-6-deoxy-α-L-mannopyranosyl (1→2)-046-deoxy-α-L-mannopyranosyl-(1→4)]-[3-D-Glucopyranoside], the results for the IC50 at core 2 GlcNAc-T [1] (setting [5]) and on Core 2 GlcNAc-T [2] (setting [6]) were 35 nM and 50 nM, respectively.

In the case of `C[C@@H](CC[C@@]1(O)O[C@H]2C[C@H]3[C@@H]4CC[C@@H]5C[C@@H](O[C@@H]6O[C@H](CO)[C@@H](O[C@@H]7O[C@H](CO)[C@@H](O)[C@H](O)[C@H]7O)[C@H](O)[C@H]6O[C@@H]6O[C@@H](C)[C@H](O)[C@@H](O)[C@H]6O)CC[C@]5(C)[C@H]4CC[C@]3(C)[C@H]2[C@@H]1C)CO[C@@H]1O[C@H](CO)[C@@H](O)[C@H](O)[C@H]1O` [Shatavarin I, (3β,5β,22α,25S)-26-(β-D-glucopyranosyloxy)-22-hydroxyfurostan-3-yl O-6-deoxy-α-L-mannopyranosyl-(1-42)-O-[β-D-glucopyranosyl-(1→4)]-β-D-glucopyranoside], the IC50 at core 2 GlcNAc-T [1] (setting [5]) worked out at 1 nM; at Core 2 GlcNAc-T [2] (setting [6]), 0.75 nM.

Consider `C[C@@H](CC[C@@]1(O)O[C@H]2C[C@H]3[C@@H]4CC=C5C[C@@H](O[C@@H]6O[C@H](CO)[C@@H](O[C@@H]7O[C@@H](C)[C@H](O)[C@@H](O)[C@H]7O)[C@H](O)[C@H]6O[C@@H]6O[C@@H](C)[C@H](O)[C@@H](O)[C@H]6O)CC[C@]5(C)[C@H]4CC[C@]3(C)[C@H]2[C@@H]1C)CO[C@@H]1O[C@H](CO)[C@@H](O)[C@H](O)[C@H]1O` [Trigonelloside C], for which, on Core 2 GlcNAc-T [4] (at 2.5 nM, preparation 98.2% pure), the “inhibition of Core 2 GlcNAc-T” value came to 69%.

For `C[C@@H](CCC1(O)O[C@H]2C[C@H]3[C@@H]4CC=C5C[C@@H](O[C@@H]6O[C@H](CO)[C@@H](O[C@@H]7O[C@H](CO)[C@@H](O)[C@H](O)[C@H]7O)[C@H](O)[C@H]6O[C@@H]6O[C@@H](C)[C@H](O)[C@@H](O)[C@H]6O)CC[C@]5(C)[C@H]4CC[C@]3(C)[C@H]2[C@@H]1C)CO[C@@H]1O[C@H](CO)[C@@H](O)[C@H](O)[C@H]1O` (stereo partly drawn) [Trigoneoside IVa, (3β,25 S)-26-(β-D-glucopyranosyloxy)-22-hydroxyfurost-5-en-3-yl O-6-deoxy-α-L-mannopyranosyl-(1→2)-O-[β-D-glucopyranosyl-(1→4)]-β-D-glucopyranoside], the half-maximal inhibitory concentration (IC50) at core 2 GlcNAc-T [1] (setting [5]) is 0.9 nM; at core 2 GlcNAc-T [1] (in cell free systems, read-out: approximate IC50), 0.25 to 0.9 nM; at Core 2 GlcNAc-T [2] (setting [6]) it was 75 nM.
